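Step 1: Grow cells in 96-well plates. Step 2: Expose to compound for 48 hours at 5 concentrations. Step 3: Interpolate endpoints linearly; if unreached, use highest concentration. Abbreviation: GI50, concentration required for 50% inhibition of growth.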 The source made the active and inactive calls. Cut-off read from the data, not from the text of the source: active = GI50 up to about 1.1 µM and inactive = higher.
How the values were obtained:
Test in all cases: NCI-60 cell line screen, 48 h
[1] = test system: SF-268
[2] = test system: SR
[3] = test system: SK-MEL-2
[4] = test system: TK-10
[5] = test system: HCT-116
[6] = test system: 786-0
[7] = test system: SK-MEL-28
[8] = test system: OVCAR-5
[9] = test system: RPMI-8226
[10] = test system: SF-295
[11] = test system: SW-620
[12] = test system: OVCAR-4
[13] = test system: OVCAR-3
[14] = test system: M14
[15] = test system: U-251
[16] = test system: SN12C
[17] = test system: HL-60

Measured: GI50

COc1ccc(-c2nc(Sc3c([N+](=O)[O-])ncn3C)n[nH]2)cc1
inactive: [1] 3.94 µM | [2] 3.23 µM | [3] 2.25 µM | [4] 6.17 µM | [5] 2.81 µM | [6] 3.27 µM | [7] 4.21 µM | [8] 21 µM | [9] 3.66 µM | [10] 3.33 µM | [11] 3.26 µM | [12] 8.24 µM | [13] 1.94 µM | [14] 2.17 µM | [15] 2.25 µM | [16] 2.64 µM

CC(=O)Oc1cc(Cl)c(OC(C)=O)c2c(OC(C)=O)c(C)c(O[Si](C)(C)C(C)(C)C)cc12
inactive: [1] 11.5 µM | [2] 3.62 µM | [3] 17.9 µM | [4] 5.31 µM | [5] 3.35 µM | [6] 14.9 µM | [7] 3.05 µM | [9] 2.93 µM | [10] 11 µM | [11] 2.8 µM | [12] 13.2 µM | [13] 15.6 µM | [17] 2.84 µM | [14] 5.7 µM | [15] 2.32 µM | [16] 11.1 µM

CN(c1ccccc1)c1nc(=[N+]2CCCC2)ss1.[O-][Cl+3]([O-])([O-])[O-]
inactive: [1] > 100 µM | [2] 17.1 µM | [3] > 100 µM | [4] > 100 µM | [5] > 100 µM | [6] 6.5 µM | [7] > 100 µM | [9] > 100 µM | [11] > 100 µM | [12] > 100 µM | [13] > 100 µM | [17] > 100 µM | [14] > 100 µM | [15] > 100 µM | [16] > 100 µM

Cc1ccccc1NC(=O)C1C(=O)N(c2ccccc2C)C(=O)/C1=N\NC(N)=S (stereo not given)
inactive: [1] > 100 µM | [2] > 100 µM | [3] > 100 µM | [4] > 100 µM | [5] > 100 µM | [6] > 100 µM | [7] > 100 µM | [9] > 100 µM | [10] > 100 µM | [11] > 100 µM | [13] > 100 µM | [17] > 100 µM | [14] > 100 µM | [15] > 100 µM | [16] > 100 µM

COc1cccc(/C=C2\C(=O)N(C(=O)c3ccc(NC(C)=O)cc3)N=C2C)c1
inactive: [1] > 100 µM | [3] > 100 µM | [4] > 100 µM | [5] > 100 µM | [6] > 100 µM | [7] > 100 µM | [8] > 100 µM | [10] > 100 µM | [11] > 100 µM | [12] > 100 µM | [13] > 100 µM | [14] > 100 µM | [15] > 100 µM | [16] > 100 µM

O=C(Cn1ccnc1[N+](=O)[O-])c1ccc(F)cc1
inactive: [1] > 100 µM | [3] > 100 µM | [4] > 100 µM | [6] > 100 µM | [7] > 100 µM | [8] > 100 µM | [9] > 100 µM | [10] > 100 µM | [11] > 100 µM | [12] > 100 µM | [13] > 100 µM | [17] > 100 µM | [14] > 100 µM | [15] > 100 µM | [16] > 100 µM

CC(=O)c1c2c(cc3c1CC1(C3)Cc3cc4c(c(C(=O)O)c3C1)CCC4)CCC2 (stereo not given)
inactive: [1] 36.8 µM | [2] 25.2 µM | [4] 42.3 µM | [5] 24.9 µM | [6] 47.2 µM | [7] 44.5 µM | [8] > 100 µM | [10] 38.9 µM | [11] 48.6 µM | [12] 49.1 µM | [13] 19.7 µM | [17] 16.7 µM | [14] 41.2 µM | [15] 26.2 µM | [16] 31.4 µM

COC(=O)C1(c2ccc(OC)cc2)NC(c2ccccc2)C2C(=O)N(c3ccc(OC)cc3)C(=O)C21 (stereo not given)
inactive: [1] > 100 µM | [3] > 100 µM | [4] > 100 µM | [6] > 100 µM | [7] > 100 µM | [8] > 100 µM | [9] > 100 µM | [10] > 100 µM | [11] > 100 µM | [12] > 100 µM | [17] > 100 µM | [14] > 100 µM | [15] > 100 µM | [16] > 100 µM

CN(C)C(=N)NC(=S)N(C)C
inactive: [1] > 100 µM | [2] > 100 µM | [3] > 100 µM | [4] > 100 µM | [5] > 100 µM | [6] > 100 µM | [7] > 100 µM | [8] > 100 µM | [9] > 100 µM | [10] > 100 µM | [11] > 100 µM | [12] > 100 µM | [17] > 100 µM | [14] > 100 µM | [15] > 100 µM | [16] > 100 µM

CC(Oc1ccc(OCC2CCCCC2)cc1)C(=O)NCc1ccco1 (stereo not given)
inactive: [1] 98.9 µM | [3] 21 µM | [4] 84.7 µM | [5] 26.4 µM | [6] 34.6 µM | [7] 43.6 µM | [12] 56.5 µM | [13] 40.6 µM | [17] 31.5 µM | [14] 18.7 µM | [15] 36.6 µM | [16] 51.1 µM

CC(=O)CC(=O)ON(C)C(=O)Cc1ccccc1
inactive: [1] > 100 µM | [2] > 100 µM | [4] > 100 µM | [5] > 100 µM | [6] > 100 µM | [7] > 100 µM | [8] > 100 µM | [9] > 100 µM | [10] > 100 µM | [11] > 100 µM | [12] > 100 µM | [13] > 100 µM | [17] > 100 µM | [14] > 100 µM | [15] > 100 µM | [16] > 100 µM

O=C1CN=C(c2ccccc2)c2ccncc2N1
inactive: [1] > 100 µM | [2] > 100 µM | [3] > 100 µM | [4] 33.3 µM | [5] > 100 µM | [6] > 100 µM | [7] > 100 µM | [8] > 100 µM | [10] > 100 µM | [11] > 100 µM | [12] > 100 µM | [13] > 100 µM | [17] > 100 µM | [14] > 100 µM | [15] > 100 µM | [16] > 100 µM

Cc1cc(C)nc(NS(=O)(=O)c2ccc(NC(=O)COC(=O)c3cccc4c(=O)c5ccccc5[nH]c34)cc2)n1
inactive: [1] 37.7 µM | [2] 28.6 µM | [4] 76.4 µM | [5] 23.7 µM | [6] 19.1 µM | [7] 31.7 µM | [8] 20.7 µM | [9] 35.7 µM | [10] 33.7 µM | [11] 31.8 µM | [12] 49.1 µM | [13] 23.6 µM | [17] 26.9 µM | [14] 56 µM | [15] 20 µM | [16] 40.4 µM

CCOC(=O)[C@H]1Nc2ccc(C)cc2C2c3ccccc3CC21 (stereo not given in full)
inactive: [1] > 100 µM | [2] > 100 µM | [3] > 100 µM | [4] > 100 µM | [5] > 100 µM | [6] > 100 µM | [7] > 100 µM | [8] > 100 µM | [9] > 100 µM | [10] 74.1 µM | [11] > 100 µM | [12] > 100 µM | [13] > 100 µM | [14] > 100 µM | [15] > 100 µM | [16] > 100 µM

O=S1(=O)C[C@@H](O)[C@H](O)CS1
inactive: [1] > 100 µM | [2] > 100 µM | [4] > 100 µM | [5] > 100 µM | [6] > 100 µM | [7] > 100 µM | [8] > 100 µM | [9] > 100 µM | [10] > 100 µM | [11] > 100 µM | [12] > 100 µM | [13] > 100 µM | [17] > 100 µM | [14] > 100 µM | [15] > 100 µM | [16] > 100 µM

COc1cccc(OC)c1C(=O)OCc1ccccc1
inactive: [1] > 100 µM | [2] > 100 µM | [3] > 100 µM | [4] > 100 µM | [5] > 100 µM | [6] > 100 µM | [7] > 100 µM | [9] > 100 µM | [10] > 100 µM | [11] > 100 µM | [12] > 100 µM | [13] > 100 µM | [17] > 100 µM | [14] > 100 µM | [15] > 100 µM | [16] > 100 µM

c1ccc2c(c1)[nH]c1c2ncc2[nH]c3ccccc3c21
inactive: [1] 6.32 µM | [3] 7.29 µM | [4] 7.33 µM | [5] 1.77 µM | [6] 2.32 µM | [7] 11.7 µM | [8] 10.9 µM | [9] 2.26 µM | [10] 3.58 µM | [11] 2.9 µM | [12] 1.9 µM | [13] 2.54 µM | [17] 2 µM | [14] 2.75 µM | [15] 2.43 µM | [16] 3.51 µM
